Among the data in patent publication US10160755B2 (Plexxikon Inc., priority 2015, dated 2018) are GI50 values, retold here.

The assay deals with T1, BA/F3-FLT3-ITD + F691L cells (Homo sapiens, UniProt P36888, F691L, cells depend on it, form not given).
T1 sequence (P36888 1-993 F691L): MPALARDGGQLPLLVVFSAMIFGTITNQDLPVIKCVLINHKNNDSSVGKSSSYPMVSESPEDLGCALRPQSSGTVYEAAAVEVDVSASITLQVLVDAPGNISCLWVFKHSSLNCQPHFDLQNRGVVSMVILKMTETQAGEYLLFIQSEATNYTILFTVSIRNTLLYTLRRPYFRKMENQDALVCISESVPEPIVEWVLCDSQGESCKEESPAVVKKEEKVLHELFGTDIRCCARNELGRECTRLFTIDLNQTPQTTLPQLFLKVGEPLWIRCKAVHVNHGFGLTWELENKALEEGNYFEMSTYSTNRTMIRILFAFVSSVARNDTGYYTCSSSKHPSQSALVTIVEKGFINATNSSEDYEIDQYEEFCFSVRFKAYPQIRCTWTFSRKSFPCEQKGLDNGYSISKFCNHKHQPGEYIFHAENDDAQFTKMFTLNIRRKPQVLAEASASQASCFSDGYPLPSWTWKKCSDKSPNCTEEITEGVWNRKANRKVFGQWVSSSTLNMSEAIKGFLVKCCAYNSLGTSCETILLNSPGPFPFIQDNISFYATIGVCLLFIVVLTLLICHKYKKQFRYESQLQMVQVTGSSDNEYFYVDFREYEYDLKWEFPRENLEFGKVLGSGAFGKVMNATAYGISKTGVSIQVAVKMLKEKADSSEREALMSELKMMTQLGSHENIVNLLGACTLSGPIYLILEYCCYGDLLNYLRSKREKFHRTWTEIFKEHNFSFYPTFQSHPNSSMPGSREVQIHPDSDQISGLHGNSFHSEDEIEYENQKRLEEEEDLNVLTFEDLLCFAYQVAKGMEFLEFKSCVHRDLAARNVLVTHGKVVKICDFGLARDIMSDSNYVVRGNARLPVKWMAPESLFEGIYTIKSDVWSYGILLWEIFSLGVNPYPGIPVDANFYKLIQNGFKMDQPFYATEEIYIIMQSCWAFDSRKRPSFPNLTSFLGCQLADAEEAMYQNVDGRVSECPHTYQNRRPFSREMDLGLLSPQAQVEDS
Put plainly: BA/F3-FLT3-ITD + F691L cell proliferation assay (CellTiter-Glo). The settings on record: BaF3 FLT3 ITD/F691L cells; read-out: Cell Activity (IC50 μM) BaF3_FLT3_ITD/F691L. In kind it is cell-based, murine. The method in brief:
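Three-day growth assay, IC50 from CellTiter-Glo ATP luminescence vs concentration. Compounds at 10 to 0.0046 μM (1:3 steps, final DMSO 0.2%) on 1×10^4 cells/well. Cells are IL-3-independent BA/F3 lines engineered to express full-length FLT3-ITD with the D835Y or the F691L mutation.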
Regarding `COc1cc(C#Cc2cnc3[nH]cc(-c4ccc5ncn(C6CCCNC6)c5c4)c3c2)ccn1` (centres unmarked) [P-241, 5-[2-(2-methoxy-4-pyridyl)ethynyl]-3-[3-(3-piperidyl)benzimidazol-5-yl]-1H-pyrrolo[2,3-b]pyridine], the GI50 lay within 0.0001 to 1 µM.
In the case of `CC(C)(C)n1cnc2ccc(-c3c[nH]c4ncc(-c5ccc(N6CCOCC6)cc5)nc34)cc21` [P-100, 4-[4-[7-(3-tert-butylbenzimidazol-5-yl)-5H-pyrrolo[2,3-b]pyrazin-2-yl]phenyl]morpholine] it was 0.0001 to 1 µM; in that of `N#Cc1cccc(NC(=O)c2cnc3[nH]cc(-c4ccc5ncn(C6CCCNC6)c5c4)c3c2)c1` (centres unmarked) [P-219, N-(3-cyanophenyl)-3-(1-(piperidin-3-yl)-1H-benzo[d]imidazol-6-yl)-1H-pyrrolo[2,3-b]pyridine-5-carboxamide], 1 to 10 µM.
The result for `CC(C)(C)n1cnc2ccc(-c3c[nH]c4ncc(-c5ccnc(N6CCOCC6)c5)nc34)cc21` [P-228, 4-[4-[7-(3-tert-butylbenzimidazol-5-yl)-5H-pyrrolo[2,3-b]pyrazin-2-yl]-2-pyridyl]morpholine] reads 0.0001 to 1 µM; that for `COc1cnc2[nH]cc(-c3ccc4ncn(-c5ccc(Cl)cc5)c4c3)c2c1` [P-104, 1-(4-chlorophenyl)-6-(5-methoxy-1H-pyrrolo[2,3-b]pyridin-3-yl)benzimidazole], 0.0001 to 1 µM.
Turning to `CC(C)(C)n1cnc2ccc(-c3c[nH]c4ncc(NC(=O)c5cccc(C#N)c5)cc34)cc21` [P-235, N-[3-(3-tert-butylbenzimidazol-5-yl)-1H-pyrrolo[2,3-b]pyridin-5-yl]-3-cyano-benzamide], the GI50 fell in the range of 0.0001 to 1 µM.
For `CC(C)(C)n1cnc2ccc(-c3c[nH]c4ncc(-c5cccc(S(=O)(=O)N6CCCC6)c5)nc34)cc21` [P-229, 7-(3-tert-butylbenzimidazol-5-yl)-2-(3-pyrrolidin-1-ylsulfonylphenyl)-5H-pyrrolo[2,3-b]pyrazine], the GI50 lay in the range of 0.0001 to 1 µM.
On to `COc1cc(-c2cnc3[nH]cc(-c4ccc5ncn([C@@H]6CCCNC6)c5c4)c3n2)ccn1` [P-254, 2-(2-methoxy-4-pyridyl)-7-[3-[(3R)-3-piperidyl]benzimidazol-5-yl]-5H-pyrrolo[2,3-b]pyrazine], for which the GI50 fell in the range of 0.0001 to 1 µM.
Consider `C(#Cc1cnc2[nH]cc(-c3ccc4ncn(C5CCCNC5)c4c3)c2n1)c1ccccc1` (centres unmarked) [P-248, 2-(2-phenylethynyl)-7-[3-(3-piperidyl)benzimidazol-5-yl]-5H-pyrrolo[2,3-b]pyrazine], for which the GI50 lay in the range of 0.0001 to 1 µM.
Regarding `COc1cc(-c2cnc3[nH]nc(-c4ccc5ncn(C(C)(C)C)c5c4)c3c2)ccn1` [P-272, 3-(1-(tert-butyl)-1H-benzo[d]imidazol-6-yl)-5-(2-methoxypyridin-4-yl)-1H-pyrazolo[3,4-b]pyridine], the GI50 fell in the range of 0.0001 to 1 µM.
Take `COc1cc(-c2cnc3[nH]cc(-c4ccc5ncn(C(C)(C)C)c5c4)c3c2)ccn1` [P-106, 1-tert-butyl-6-[5-(2-methoxy-4-pyridyl)-1H-pyrrolo[2,3-b]pyridin-3-yl]benzimidazole]: the GI50 was 0.0001 to 1 µM.
In the case of `COC(=O)N1CCCC(n2cnc3ccc(-c4c[nH]c5ncc(-c6ccnc(OC)c6)nc45)cc32)C1` (centres unmarked) [P-261, methyl 3-(6-(2-(2-methoxypyridin-4-yl)-5H-pyrrolo[2,3-b]pyrazin-7-yl)-1H-benzo[d]imidazol-1-yl)piperidine-1-carboxylate] it was 0.0001 to 1 µM; in that of `COc1cc(C(=O)Nc2cnc3[nH]cc(-c4ccc5ncn(C(C)(C)C)c5c4)c3c2)ccn1` [P-245, N-[3-(3-tert-butylbenzimidazol-5-yl)-1H-pyrrolo[2,3-b]pyridin-5-yl]-2-methoxy-pyridine-4-carboxamide], 0.0001 to 1 µM.
In the case of `N#Cc1cccc(C(=O)Nc2cnc3[nH]cc(-c4ccc5ncn(C6CCCNC6)c5c4)c3c2)c1` (centres unmarked) [P-236, 3-cyano-N-[3-[3-(3-piperidyl)benzimidazol-5-yl]-1H-pyrrolo[2,3-b]pyridin-5-yl]benzamide] it was 0.0001 to 1 µM; in that of `CC(C)(C)n1cnc2ccc(-c3c[nH]c4ncc(-c5cccc(S(=O)(=O)N6CCCC6)c5)cc34)cc21` [P-220, 1-tert-butyl-6-[5-(3-pyrrolidin-1-ylsulfonylphenyl)-1H-pyrrolo[2,3-b]pyridin-3-yl]benzimidazole], 0.0001 to 1 µM.
Turning to `FC(F)(F)Oc1cccc(-c2cnc3[nH]cc(-c4ccc5ncn(C6CCCNC6)c5c4)c3n2)c1` (centres unmarked) [P-193, 7-[3-(3-piperidyl)benzimidazol-5-yl]-2-[3-(trifluoromethoxy)phenyl]-5H-pyrrolo[2,3-b]pyrazine], the GI50 lay in the range of 0.0001 to 1 µM.
Regarding `FC(F)n1cc(-c2cnc3[nH]cc(-c4ccc5ncn(C6CCCNC6)c5c4)c3n2)cn1` (centres unmarked) [P-257, 2-[1-(difluoromethyl)pyrazol-4-yl]-7-[3-(3-piperidyl)benzimidazol-5-yl]-5H-pyrrolo[2,3-b]pyrazine], the GI50 was 0.0001 to 1 µM.
The result for `CCCS(=O)(=O)Nc1cccc(-c2cnc3[nH]cc(-c4ccc5ncn(C(C)(C)C)c5c4)c3n2)c1` [P-225, N-[3-[7-(3-tert-butylbenzimidazol-5-yl)-5H-pyrrolo[2,3-b]pyrazin-2-yl]phenyl]propane-1-sulfonamide] reads 0.0001 to 1 µM.
With `CC(C)(C)n1cnc2ccc(-c3c[nH]c4ncc(-c5cnn(CC(F)(F)F)c5)cc34)cc21` [P-252, 1-tert-butyl-6-[5-[1-(2,2,2-trifluoroethyl)pyrazol-4-yl]-1H-pyrrolo[2,3-b]pyridin-3-yl]benzimidazole], the GI50 lay in the range of 0.0001 to 1 µM.
The result for `CCCS(=O)(=O)Nc1cccc(-c2cnc3[nH]cc(-c4ccc5ncn(C6CCCNC6)c5c4)c3c2)c1` (centres unmarked) [P-217, N-[3-[3-[3-(3-piperidyl)benzimidazol-5-yl]-1H-pyrrolo[2,3-b]pyridin-5-yl]phenyl]propane-1-sulfonamide] reads 0.0001 to 1 µM; that for `CC(C)(C)n1cnc2ccc(-c3c[nH]c4ncc(C(=O)Nc5cccc(C#N)c5)cc34)cc21` [P-218, 3-(3-tert-butylbenzimidazol-5-yl)-N-(3-cyanophenyl)-1H-pyrrolo[2,3-b]pyridine-5-carboxamide], 0.0001 to 1 µM; that for `N#Cc1cc(-c2cnc3[nH]cc(-c4ccc5ncn(C6CCCNC6)c5c4)c3n2)ccc1F` (centres unmarked) [P-238, 2-fluoro-5-[7-[3-(3-piperidyl)benzimidazol-5-yl]-5H-pyrrolo[2,3-b]pyrazin-2-yl]benzonitrile], 0.0001 to 1 µM.
`COc1cnc2[nH]cc(-c3ccc4ncn(-c5cccc(Cl)c5)c4c3)c2c1` [P-105, 1-(3-chlorophenyl)-6-(5-methoxy-1H-pyrrolo[2,3-b]pyridin-3-yl)benzimidazole]: the GI50 fell in the range of 0.0001 to 1 µM.
The result for `O=S(=O)(c1cccc(-c2cnc3[nH]cc(-c4ccc5ncn(C6CCCNC6)c5c4)c3c2)c1)N1CCCC1` (centres unmarked) [P-222, 1-(3-piperidyl)-6-[5-(3-pyrrolidin-1-ylsulfonylphenyl)-1H-pyrrolo[2,3-b]pyridin-3-yl]benzimidazole] reads 0.0001 to 1 µM; that for `COc1ncc(-c2cnc3[nH]cc(-c4ccc5ncn(C(C)(C)C)c5c4)c3c2)cn1` [P-265, 1-(tert-butyl)-6-(5-(2-methoxypyrimidin-5-yl)-1H-pyrrolo[2,3-b]pyridin-3-yl)-1H-benzo[d]imidazole], 0.0001 to 1 µM; that for `C#Cc1cnc2[nH]cc(-c3ccc4ncn(C(C)(C)C)c4c3)c2c1` [P-244, 1-tert-butyl-6-(5-ethynyl-1H-pyrrolo[2,3-b]pyridin-3-yl)benzimidazole], 0.0001 to 1 µM.
As to `COc1cc(-c2cnc3[nH]cc(-c4ccc5ncn(C6CCCN(C)C6)c5c4)c3n2)ccn1` (centres unmarked) [P-271, 2-(2-methoxy-4-pyridyl)-7-[3-(1-methyl-3-piperidyl)benzimidazol-5-yl]-5H-pyrrolo[2,3-b]pyrazine], the GI50 was 0.0001 to 1 µM.
The result for `N#Cc1cccc(-c2cnc3[nH]cc(-c4ccc5ncn(-c6ccc(F)c(Cl)c6)c5c4)c3c2)c1` [P-210, 3-[3-[3-(3-chloro-4-fluoro-phenyl)benzimidazol-5-yl]-1H-pyrrolo[2,3-b]pyridin-5-yl]benzonitrile] reads 0.0001 to 1 µM; that for `FC(F)(F)Oc1cccc(C#Cc2cnc3[nH]cc(-c4ccc5ncn(C6CCCNC6)c5c4)c3n2)c1` (centres unmarked) [P-246, 7-[3-(3-piperidyl)benzimidazol-5-yl]-2-[2-[3-(trifluoromethoxy)phenyl]ethynyl]-5H-pyrrolo[2,3-b]pyrazine], 1 to 10 µM.
